These results are taken from patent US20260166182A1, “CYANINE-BASED FLUOROPHORES” (The General Hospital Corporation, priority 2022, published 2026).

Series [1] relates to immune cells from bone marrow and tumor tissues. Kind of series: Flow cytometry analysis of fluorophore-targeted immune cells from bone marrow and tumor. The series is classed as in vivo, mouse. Conditions: 48 h post-injection. As to the method: Flow cytometry analysis: Bone marrow tissue was mechanically dissociated and digested with collagenase D (175 unit/mL, Roche) and DNase I (100 unit/mL, Roche) followed by EDTA (2 mM, Invitrogen). Erythrocytes were removed using RBC Lysis Buffer (Invitrogen). Tumor tissue was mechanically dissociated and digested with collagenase I (175 unit/mL, Thermo-fisher), Collagenase IV (250 unit/mL, Thermo-fisher, 1700019), and DNase I (100 unit/mL) followed by EDTA ([…]). Immune cells were isolated from cell suspensions of the bone marrow or tumor tissue using Ficoll® Paque Plus (GE Healthcare). Isolated cells were stained with anti-mouse F4/80 (BM8, Biolegend, 123131), anti-mouse Ly-6G (1A8, Biolegend, 127639), anti-mouse Ly-6C(HK1.4, Biolegend, 128011), anti-mouse CD11c (N418, Biolegend, 117313), anti-mouse CD103 (2E7, Biolegend, 121425), anti-mouse I-A/I-E (M5/114.15.2 Biolegend, 107611), anti-mouse/human CD11b (M1/70, Biolegend, 101254) and anti-mouse CD45 antibodies (30-F11, Biolegend, 103105) conjugated to fluorophores. Isolated cells were stained with Live/dead®-Aqua (Life Technologies) to distinguish live cells. Stained cells were fixed using 1% paraformaldehyde prior to analysis. Data acquisition was performed on a Fortessa cytometer (BD) followed by analysis on FlowJo software (Tree Star).

The test system of series [2] is lung carcinoma (LLC cell line). In words: NIR-II fluorescence imaging of subcutaneous LLC tumor-bearing C57BL/6 mice. The series is classed as in vivo, mouse. To be noted: for tumor targeting / tumor signal: intravenous, NIR-II imaging until 48 h post-injection. The source says:
General NIR-II fluorescence imaging: A 640×512-pixel InGaAs camera (Ninox640, Raptor Photonics) and macro zoom lens (0-10×; Navitar Zoom 7000 with SWIR coating) along with 900, 1070, 1100, and 1200 nm long-pass (LP) filters from either Thorlab or Edmund optics were used to collect the NIR-II signal. InGaAs camera played a role as an open-air imaging system along with the support of the FLARE system. An 808 nm fiber-coupled diode laser ([…] at the sample) was used as an excitation source. Data acquisition was done using in-house developed software. […] Mice were imaged with intact skin using InGaAs camera. At least 3 mice were analyzed for each sample. Tumor-bearing mouse models: Animals were housed in an AAALAC-certified facility and were studied under the protocols approved by the MGH IACUC (2016N000136). Mice were maintained under anesthesia with isoflurane and oxygen during the experiment. To establish the various tumor-bearing mouse models including lung carcinoma, pancreatic ductal adenocarcinoma (PDAC), and triple negative breast adenocarcinoma, eight-week-old C57BL/6 mice (Taconic Farms, Germantown, NY) were subcutaneously injected with 2×10^5 LLC, Pan02, and E0771 cells suspended in DMEM/Matrigel (100 μL, 50 v/v %) in the flank region, respectively. Female C57BL/6 mice were used for the breast cancer (E0771) model, otherwise male mice were used. […] Statistical analysis: The fluorescence and background intensities of a region of interest over each tissue were quantified using customized imaging software and ImageJ v1.48 (National Institutes of Health, Bethesda, MD). The signal-to-background ratio (SBR) was calculated as SBR=fluorescence/background, where background was the fluorescence intensity of muscle. Data were reported as mean±s.e.m. with a minimum of three biological replicates. Student's t-test statistical analysis was performed to evaluate the significance of the experimental data. The differences among groups were determined using one-way ANOVA analysis to assess the statistical differences among more than two groups. […] The data was indicated with *p<0.05, ** p<0.01, *** p<0.001, and **** p<0.0001.

Series [3] has as its system serum proteins, mostly albumin. In words: Serum protein binding kinetics (size exclusion column). The class given is in vitro ADME. To be noted: until 24 h incubation. As to the method:
FIG. 15 Reaction kinetics of SH1, ICG, and IR-780 to serum proteins, mostly albumin. 50 nmol of each dye was mixed with 1 ml of FBS/PBS (pH 7.4) 50/50 v/v %, incubated at 37° C., and analyzed using a BioResolve size exclusion column (200 Å, 2.5 μm, 7.8×300 mm). The binding percentage was calculated by dividing by absorbance of bound dye at 24 h assuming the dyes can bind in maximum capacity in the protein at 24 h.

Series [4] in a line: Photostability under xenon lamp irradiation. The class given is physicochemical. Conditions: ethanol, xenon lamp 150 W, end of 2 h. How it is done: Optical Study, Photostability, Physicochemical Properties, and DFT Calculation: 1 mM stock solution in DMSO of the synthesized fluorophores was prepared before starting any spectral measurement. Optical properties for the synthesized fluorophores were measured in four different solvents (EtOH, DMSO, HEPES, and PBS). Absorbance spectra were measured in a Varian Cary 50 absorbance spectrophotometer (190-1100 nm). Fluorescence emission and photostability were measured and emission spectra were recorded on a Shimadzu RF-5301PC spectrofluorometer. Physicochemical properties (Log D, molecular mass, TPSA, H bond D/A, polarizability, molecular volume, and rotatable bonds) were predicted by ChemAxon (JChem plugin). Theoretical calculations of frontier molecular orbitals (FMOs) for the optimized structures of selected fluorophores were calculated based on DFT calculations at the B3LYP/6-311G(d,p) level.
In consideration of theranostic (therapeutics and diagnostic) applications, NIR cyanine fluorophores are synthesized for fluorescence imaging, photodynamic therapy (PDT), photothermal therapy (PTT), optoacoustic imaging, and cancer immunotherapy. One of the approaches before using these fluorophores in those applications is to study their biodistribution and clearance pattern in vivo. […] The power density of 150 W is much higher than the required power for fluorescence imaging, considering that the time it takes for a fluorophore to clear from the background and accumulate in sufficient quantities in the targeted tissues is unknown. […] By considering this, an aliquot of the stock solution (1 mM in DMSO) was diluted in ethanol, and the fluorescence intensity was measured at the excitation wavelength same as their absorption maxima (nm). Photodegradation rates were measured every 20 min intervals for the selected fluorophores based on the % reduced fluorescence intensity starting from 100%. […] The data were collected in every 20 min intervals under continuous irradiation with a xenon lamp at 150 W for 2 h and presented based on the % reduced fluorescence intensity starting from 100%. […]

The subject of the next series is LLC tumor. In words: Tumor histopathology with NIR fluorescence microscopy of resected LLC tumors. The series is classed as in vivo, mouse. To be noted: histological NIR images. How it is done:
Tumor histopathology evaluation: […] After rinsing with PBS, the fixed sections were counterstained with nuclear fast red, dehydrated by ethanol, transferred into xylene, and finally mounted according to the standard protocol. To determine the tissue distribution of the NIR fluorophore, the dissected tissues were embedded in Tissue-Tek optimum cutting temperature compound (Sakura Finetek, Torrance, CA) without a pre-fixation step. The tissue block was frozen at −80° C. Frozen sections were cut at a thickness of 10 or 50 μm by a cryostat (Leica, Germany). Then, the tissue sections were stained with hematoxylin and eosin (H&E). The BioTek Cytation 5 (Winooski, VT) was used for pathological fluorescence imaging and observation.

For series [5] the following is noted: cited from earlier work.
For series [6], the system named is serum proteins, mostly albumin. Conditions: cited from earlier work.

“Also recorded” adds a separate entry of the source.

As to `CC1(C)C(/C=C/C=C/C=C/C=C2\N(CCCCS(=O)(=O)O)c3ccc4ccccc4c3C2(C)C)=[N+](CCCCS(=O)(=O)[O-])c2ccc3ccccc3c21` [ICG, indocyanine green, reference compound], the “positively stained cells across distinct immune cell populations” value in series [1] (bone marrow) is recorded as less than 8%; in series [1] (tumor), less than 14%. The “tumor targeting / tumor signal” value in series [2] is “did not show good tumor targeting”. For the same molecule, the clearance entry in series [2] (mouse, in vivo) was “fast hepatobiliary clearance”. Moreover, the “reaction with serum proteins” value in series [3] is recorded as “did not show any reactions with proteins until 24 h incubation”. In addition, in series [4], the “photodegradation (% reduced fluorescence intensity)” value was found to be 41%. Also, the “fluorescence signal location in resected tumor” value in the series on LLC tumor is reported as “barely present in the tumor”. Also, the “reference quantum yield ΦICG” value in series [5] is reported as 0.043.
As for `CCCN1/C(=C/C=C2\CCCC(/C=C/C3=[N+](CCC)c4ccccc4C3(C)C)=C2Cl)C(C)(C)c2ccccc21.[I-]` [IR-780], the “positively stained cells across distinct immune cell populations” value was less than 22% in series [1] (bone marrow) and less than 7% in series [1] (tumor). For the same molecule, the “nonspecific background signal in biodistribution” value in series [2] (4 h post-injection) is given as “High nonspecific background signal”. For the same molecule, the “circulation in the blood stream” value in series [2] (48 h post-injection) is “strong signals in the blood plasma; also recorded: circulating in the blood stream”. Besides, the “tumor signal intensity after skin removal” value in series [2] (48 h post-injection) is “significantly decreased after skin removal”. Besides, the “tumor targeting / tumor signal” value in series [2] is reported as “accumulating in tumors at early time points around 4 h post-injection”. The “fluorescence signal location in resected tumor” value in the series on LLC tumor was “only present in the peritumoral region”. For the same molecule, in series [6], the “time to bind half of the maximum” value was approximately 2 min.
